According to patent publication US11045455B2, “Azetidine derivative, preparation method therefor, and use thereof” (SICHUAN KELUN-BIOTECH BIOPHARMACEUTICAL CO., LTD., priority 2016, dated 2021):
Read-outs that look alike come from different tables or passages of the source. Values belong to the molecule of their own block, whether it stands above or below them.

Key:
[1] = biological target: CYP3A4 (Homo sapiens (Human), UniProt P08684); assay: CYP450 enzyme test, P450-Glo screening system, CYP3A4; format: in vitro ADME
Description: (§1) CYP450 is the most important enzymatic system in drug metabolism. The enzymes involved in the metabolism interact with a drug, and mainly include CYP1A2, CYP2D6 and CYP3A4. In the CYP450 enzyme test, P450-Glo™ CYP1A2 screening system was employed to determine the inhibitory activity of compounds on CYP1A2 and CYP3A4. The Vivid® CYP2D6 Cyan screening kit was employed to determine the inhibitory activity of test compounds on CYP2D6.

[2] = biological target: TYK2 (Homo sapiens (Human), UniProt P29597); assay: TYK2 enzymatic inhibition assay (LanthaScreen TR-FRET); format: biochemical
Chain of TYK2 (P29597 whole entry): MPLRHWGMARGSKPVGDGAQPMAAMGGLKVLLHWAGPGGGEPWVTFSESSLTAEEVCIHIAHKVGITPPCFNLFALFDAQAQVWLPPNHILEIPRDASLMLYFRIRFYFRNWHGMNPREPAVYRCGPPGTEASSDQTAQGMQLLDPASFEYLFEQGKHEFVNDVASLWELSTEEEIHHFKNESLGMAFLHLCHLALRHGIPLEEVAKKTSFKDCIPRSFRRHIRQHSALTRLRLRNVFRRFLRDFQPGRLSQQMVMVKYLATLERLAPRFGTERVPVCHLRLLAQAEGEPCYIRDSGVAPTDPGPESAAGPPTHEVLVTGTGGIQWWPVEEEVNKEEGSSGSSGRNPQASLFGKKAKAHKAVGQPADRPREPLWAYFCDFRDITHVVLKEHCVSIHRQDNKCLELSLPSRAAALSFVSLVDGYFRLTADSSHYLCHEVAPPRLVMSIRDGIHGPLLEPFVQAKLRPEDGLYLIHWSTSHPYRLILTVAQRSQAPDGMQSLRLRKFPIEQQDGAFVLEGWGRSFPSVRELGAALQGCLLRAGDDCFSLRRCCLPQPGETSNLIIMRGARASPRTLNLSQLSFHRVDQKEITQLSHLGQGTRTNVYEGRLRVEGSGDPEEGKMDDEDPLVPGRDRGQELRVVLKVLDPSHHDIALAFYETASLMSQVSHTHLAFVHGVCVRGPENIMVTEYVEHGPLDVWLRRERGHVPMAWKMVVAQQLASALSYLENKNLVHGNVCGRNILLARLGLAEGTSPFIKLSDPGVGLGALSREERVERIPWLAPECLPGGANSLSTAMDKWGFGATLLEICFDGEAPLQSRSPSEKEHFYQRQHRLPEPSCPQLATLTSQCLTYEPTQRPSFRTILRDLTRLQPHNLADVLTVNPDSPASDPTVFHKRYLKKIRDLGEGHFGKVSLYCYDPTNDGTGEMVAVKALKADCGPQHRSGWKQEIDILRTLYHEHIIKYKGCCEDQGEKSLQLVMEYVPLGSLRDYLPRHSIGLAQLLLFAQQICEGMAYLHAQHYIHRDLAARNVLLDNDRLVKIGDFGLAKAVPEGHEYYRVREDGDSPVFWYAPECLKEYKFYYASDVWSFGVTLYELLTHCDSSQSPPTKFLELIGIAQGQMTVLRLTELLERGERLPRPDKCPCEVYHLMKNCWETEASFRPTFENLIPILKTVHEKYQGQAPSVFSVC
Experimental: (§2) Experimental Example 1: JAK1, JAK2, JAK3 and TYK2 Enzymatic Inhibition Assay
As for the TYK2 enzyme, Tb-anti-pSTAT1 was added, and incubation at room temperature was performed.

[3] = biological target: CYP1A2 (Homo sapiens (Human), UniProt P05177); assay: CYP450 enzyme test, P450-Glo screening system, CYP1A2; format: in vitro ADME
Chain of CYP1A2 (P05177 whole entry): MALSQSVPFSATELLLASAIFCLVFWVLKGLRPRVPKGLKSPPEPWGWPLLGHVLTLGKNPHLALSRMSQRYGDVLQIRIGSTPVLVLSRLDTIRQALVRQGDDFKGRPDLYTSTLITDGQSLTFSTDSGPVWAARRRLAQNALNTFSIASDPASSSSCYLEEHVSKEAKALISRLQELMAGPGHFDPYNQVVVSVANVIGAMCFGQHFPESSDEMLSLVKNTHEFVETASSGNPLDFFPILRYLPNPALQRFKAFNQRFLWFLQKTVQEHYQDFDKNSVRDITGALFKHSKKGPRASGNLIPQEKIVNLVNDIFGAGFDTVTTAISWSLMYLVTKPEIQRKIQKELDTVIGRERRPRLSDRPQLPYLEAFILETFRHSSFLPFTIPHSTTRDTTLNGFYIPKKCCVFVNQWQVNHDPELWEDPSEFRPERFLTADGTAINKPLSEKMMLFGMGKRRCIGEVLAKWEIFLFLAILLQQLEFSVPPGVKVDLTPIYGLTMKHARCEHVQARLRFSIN
Description: as §1

[4] = biological target: JAK3 (Homo sapiens (Human), UniProt P52333); assay: JAK3 enzymatic inhibition assay (ADP-Glo luminescence); format: biochemical
Chain of JAK3 (P52333 whole entry): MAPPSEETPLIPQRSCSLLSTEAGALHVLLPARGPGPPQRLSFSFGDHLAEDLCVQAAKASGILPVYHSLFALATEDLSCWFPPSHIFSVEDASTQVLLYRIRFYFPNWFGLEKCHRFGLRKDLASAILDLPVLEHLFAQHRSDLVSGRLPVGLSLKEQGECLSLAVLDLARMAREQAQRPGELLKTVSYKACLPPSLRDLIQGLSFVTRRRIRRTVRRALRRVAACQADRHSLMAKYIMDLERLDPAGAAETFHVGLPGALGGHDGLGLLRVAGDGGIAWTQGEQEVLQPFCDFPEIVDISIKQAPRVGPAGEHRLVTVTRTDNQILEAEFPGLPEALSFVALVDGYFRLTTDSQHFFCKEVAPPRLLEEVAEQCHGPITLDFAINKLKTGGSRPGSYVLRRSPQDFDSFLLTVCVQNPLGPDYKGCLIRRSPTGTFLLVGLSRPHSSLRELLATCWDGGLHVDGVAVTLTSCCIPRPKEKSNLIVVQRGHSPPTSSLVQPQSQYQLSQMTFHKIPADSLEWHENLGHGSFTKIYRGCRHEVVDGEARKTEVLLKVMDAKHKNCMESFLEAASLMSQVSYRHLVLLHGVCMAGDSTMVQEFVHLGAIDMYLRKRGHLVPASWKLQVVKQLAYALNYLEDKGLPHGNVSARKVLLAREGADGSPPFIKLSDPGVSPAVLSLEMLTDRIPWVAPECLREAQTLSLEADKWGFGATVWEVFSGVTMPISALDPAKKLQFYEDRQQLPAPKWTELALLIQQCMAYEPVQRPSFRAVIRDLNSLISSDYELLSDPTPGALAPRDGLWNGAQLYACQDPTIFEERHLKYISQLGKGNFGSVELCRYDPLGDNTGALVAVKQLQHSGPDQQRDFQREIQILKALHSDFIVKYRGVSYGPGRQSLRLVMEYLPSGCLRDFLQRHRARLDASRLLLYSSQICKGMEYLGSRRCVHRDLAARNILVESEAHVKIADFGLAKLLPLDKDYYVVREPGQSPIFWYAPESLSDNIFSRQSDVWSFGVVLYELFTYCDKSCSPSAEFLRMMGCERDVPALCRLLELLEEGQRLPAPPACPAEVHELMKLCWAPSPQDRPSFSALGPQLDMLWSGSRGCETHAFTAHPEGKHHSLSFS
Description: as §2

[5] = biological target: hERG potassium channel (Homo sapiens (Human), UniProt Q12809); assay: Predictor hERG Fluorescence Polarization Assay; format: binding; details: tested at 3, 10 and 30 μM
Experimental: Experimental Example 2: Safety Test
The effect of test compounds on hERG potassium channel were determined using Predictor™ hERG Fluorescence Polarization Assay at concentrations of 3, 10, and 30 μM.

[6] = biological target: JAK1 (Homo sapiens (Human), UniProt P23458); assay: JAK1 enzymatic inhibition assay (ADP-Glo luminescence); format: biochemical
Chain of JAK1 (P23458 whole entry): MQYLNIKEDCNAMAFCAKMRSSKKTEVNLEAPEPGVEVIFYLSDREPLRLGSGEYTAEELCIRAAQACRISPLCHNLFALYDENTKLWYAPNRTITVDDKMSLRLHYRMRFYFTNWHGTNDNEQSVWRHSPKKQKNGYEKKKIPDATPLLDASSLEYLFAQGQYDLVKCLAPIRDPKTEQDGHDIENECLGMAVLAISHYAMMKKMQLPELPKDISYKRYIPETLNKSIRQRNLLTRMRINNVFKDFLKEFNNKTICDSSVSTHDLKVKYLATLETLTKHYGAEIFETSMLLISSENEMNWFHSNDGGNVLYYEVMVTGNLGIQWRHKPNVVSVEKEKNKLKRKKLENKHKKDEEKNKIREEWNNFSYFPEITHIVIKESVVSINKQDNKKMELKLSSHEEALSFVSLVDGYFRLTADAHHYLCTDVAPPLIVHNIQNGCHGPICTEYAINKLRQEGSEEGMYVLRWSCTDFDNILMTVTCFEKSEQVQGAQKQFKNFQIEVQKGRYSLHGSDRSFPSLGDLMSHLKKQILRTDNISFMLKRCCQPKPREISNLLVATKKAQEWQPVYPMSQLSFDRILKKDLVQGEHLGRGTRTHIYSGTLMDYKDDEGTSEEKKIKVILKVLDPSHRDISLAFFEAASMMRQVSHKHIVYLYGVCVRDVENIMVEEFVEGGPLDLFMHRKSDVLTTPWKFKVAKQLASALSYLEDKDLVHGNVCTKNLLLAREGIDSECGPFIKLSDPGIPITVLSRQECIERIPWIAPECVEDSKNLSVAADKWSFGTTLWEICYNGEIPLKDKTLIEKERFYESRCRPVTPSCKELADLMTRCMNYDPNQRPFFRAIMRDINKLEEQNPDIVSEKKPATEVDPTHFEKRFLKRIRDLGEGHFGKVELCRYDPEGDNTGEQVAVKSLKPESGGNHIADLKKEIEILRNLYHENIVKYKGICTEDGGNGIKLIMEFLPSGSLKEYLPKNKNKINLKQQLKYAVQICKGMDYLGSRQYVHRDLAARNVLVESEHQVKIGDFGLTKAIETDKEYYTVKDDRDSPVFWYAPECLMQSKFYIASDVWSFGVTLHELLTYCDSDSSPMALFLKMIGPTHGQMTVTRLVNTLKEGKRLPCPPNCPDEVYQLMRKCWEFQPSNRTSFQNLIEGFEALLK
Experimental: (§6) Test Materials • JAK1, JAK2, JAK3 and TYK2 enzymes were purchased from Life Technologies; and substrate GFP-STAT1 was purchased from Life Technologies.
(§7) Test compounds, enzymes, the substrate and ATP were diluted to the desired concentrations with the assay buffer (40 mM Tris-HCl, pH 7.4, 20 mM MgCl2, 0.1% BSA). The former three were added into a multiple well plate, and incubated at room temperature after being mixed homogeneously. ATP was added to initiate the kinase reaction, and incubation at room temperature was performed. ADP-Glo was added, and incubation at room temperature was performed. The kinase detector reagent was then added, and incubation at room temperature was performed. The luminescence intensity of each test group was detected, and the half maximal inhibitory concentration (IC50) value was calculated.

[7] = biological target: JAK2 (Homo sapiens (Human), UniProt O60674); assay: JAK2 enzymatic inhibition assay (ADP-Glo luminescence); format: biochemical
Chain of JAK2 (O60674 whole entry): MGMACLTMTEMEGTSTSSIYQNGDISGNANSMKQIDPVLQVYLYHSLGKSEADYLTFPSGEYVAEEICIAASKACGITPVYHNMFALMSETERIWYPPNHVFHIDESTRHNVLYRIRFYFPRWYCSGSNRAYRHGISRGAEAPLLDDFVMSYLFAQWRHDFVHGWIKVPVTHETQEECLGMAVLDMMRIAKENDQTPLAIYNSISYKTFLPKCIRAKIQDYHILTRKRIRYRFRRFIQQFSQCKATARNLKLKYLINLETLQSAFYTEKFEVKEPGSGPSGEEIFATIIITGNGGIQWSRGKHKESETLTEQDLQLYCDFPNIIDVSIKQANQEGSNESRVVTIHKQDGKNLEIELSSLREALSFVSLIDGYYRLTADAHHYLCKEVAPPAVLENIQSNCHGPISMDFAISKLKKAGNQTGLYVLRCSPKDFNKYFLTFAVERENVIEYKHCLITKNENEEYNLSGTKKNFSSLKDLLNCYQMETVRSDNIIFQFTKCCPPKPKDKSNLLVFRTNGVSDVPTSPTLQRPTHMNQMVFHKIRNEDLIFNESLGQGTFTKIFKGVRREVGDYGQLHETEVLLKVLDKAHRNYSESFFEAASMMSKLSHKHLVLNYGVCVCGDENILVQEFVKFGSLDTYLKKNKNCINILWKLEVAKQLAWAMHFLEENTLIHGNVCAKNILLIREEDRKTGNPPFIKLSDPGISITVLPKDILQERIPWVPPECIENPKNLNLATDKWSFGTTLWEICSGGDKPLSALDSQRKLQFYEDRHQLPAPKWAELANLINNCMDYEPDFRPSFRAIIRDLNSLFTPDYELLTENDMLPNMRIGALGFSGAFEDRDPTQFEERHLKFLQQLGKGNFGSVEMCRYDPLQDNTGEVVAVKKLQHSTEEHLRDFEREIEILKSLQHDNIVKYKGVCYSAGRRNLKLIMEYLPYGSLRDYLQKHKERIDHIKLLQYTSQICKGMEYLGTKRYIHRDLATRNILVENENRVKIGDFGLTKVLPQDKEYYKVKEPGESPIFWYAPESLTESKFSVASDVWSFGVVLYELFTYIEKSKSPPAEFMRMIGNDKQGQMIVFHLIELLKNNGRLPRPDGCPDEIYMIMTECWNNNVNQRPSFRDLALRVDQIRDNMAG
Experimental: as §6, §7

[8] = biological target: CYP2D6 (Homo sapiens (Human), UniProt P10635); assay: CYP450 enzyme test, Vivid CYP2D6 Cyan screening kit; format: in vitro ADME
Description: as §1

[9] = Pharmacokinetic study in rats, intravenous (IV) administration; format: in vivo; details: male, SD, rat, plasma, IV administration at 1 mg/kg; for AUC(0-t): 0-24 h; for half-life: read-out: T½ (converted)
Experimental: (§3) Experimental Example 3: Pharmacokinetic Studies
(§4) To study the pharmacokinetic characteristics of test compounds, the test compounds were administrated by intravenous (IV) and gavage (PO) routes to male SD rats. The dosage for IV administration was 1 mg/kg, and that for PO administration was 0.5-5 mg/kg. The vehicle is 10% DMSO: 10% solutol: 80% physiological saline, or 5% DMSO: 5% solutol: 90% physiological saline, or 10% DMSO: 60% PEG: 30% physiological saline. Blood was collected at various time points after administration. Plasma samples were analyzed by LC-MS/MS after protein precipitation process with acetonitrile.

[10] = Pharmacokinetic study in rats, gavage (PO) administration; format: in vivo; details: male, SD, rat, plasma; for AUC(0-t): po, gavage administration at 5 mg/kg, 0-24 h
Experimental: as §3, §4

[11] = system: Collagen-Induced Arthritis (CIA) Model in Rats; assay: In vivo efficacy in collagen-induced arthritis (CIA) model in rats; set-up: species or system Lewis rats; Mean arthritis score: scale not given here
Experimental: Experimental Example 4: In Vivo Efficacy in Collagen-Induced Arthritis (CIA) Model in Rats
A mixed emulsion of bovine type II collagen and incomplete Freund's adjuvant 1:1 was injected at the back and the tail tip (3 sites) in Lewis rats. After 14 days, the paw thickness and paw volume of the rats were measured, and the arthritis development was scored. The day before the administration was set as DO, the animals were grouped based on paw volume, and the test compounds (vehicle: 5% DMSO+5% solutol) were gavage administered once a day for two weeks. The paw thickness and paw volume of the rats were measured, and the arthritis development was scored.

[12] = Pharmacokinetic study in Rhesus monkeys, gavage (PO) administration; format: in vivo; details: male, rhesus monkey, plasma, PO administration at 1 mg/kg; for AUC(0-t): 0-24 h; for half-life: read-out: T½ (converted)
Experimental: (§5) To study the pharmacokinetic characteristics of test compounds, the test compounds were administrated by a gavage (PO) route to male Rhesus monkeys. The dosage for PO administration was 1 mg/kg. Blood was collected at various time points after the PO administration. Plasma samples were analyzed by LC-MS/MS after protein precipitation process with acetonitrile. Pharmacokinetic parameters were calculated with a non-compartmental model by using WinNonlin 6.3 software.

[13] = Pharmacokinetic study in Rhesus monkeys, intravenous (IV) administration; format: in vivo; details: male, rhesus monkey, plasma, IV administration at 0.5 mg/kg
Experimental: as §5, with “an intravenous (IV)” for “a gavage (PO)”, “IV” for “PO”, “0.5” for “1”

[14] = D0 (day before administration), 10 mg/kg group
[15] = D11, 10 mg/kg gavage once a day
[16] = D15, 10 mg/kg gavage once a day

- IC50 [1]: > 10 µM
- IC50 [2]: > 30 nM
- IC50 ([3]; read-out: IC50 (μM) CYP1A2): > 10 µM
- IC50 [4]: 10 to 30 nM
- IC50 [6]: 0.55 nM
- IC50 [7]: 2.54 nM
- IC50 [8]: > 10 µM
Structure (SMILES): CC(C)S(=O)(=O)N1CC(CC#N)(n2cc(-c3c(C#N)cnc4[nH]ccc34)cn2)C1 [Compound 43, 4-(1-(3-(cyanomethyl)-1-(isopropylsulfonyl)azetidin-3-yl)-1H-pyrazol-4-yl)-1H-pyrrolo[2,3-b]pyridine-5-carbonitrile]
- IC50 [5]: > 30000 nM

- IC50 [2]: 58.2 nM
- AUC(0-t) [9]: 3170 ng·h/mL
- half-life [9]: 1.5 h
- IC50 [4]: 36.5 nM
- AUC(0-t) [10]: 32200 ng·h/mL
- IC50 [6]: 2.22 nM
- IC50 [7]: 2.16 nM
Structure (SMILES): N#CCC1(n2cc(-c3ccnc4[nH]ccc34)cn2)CN(S(=O)(=O)CCC(F)(F)F)C1 [Compound 30, 2-(3-(4-(1H-pyrrolo[2,3-b]pyridin-4-yl)-1H-pyrazol-1-yl)-1-((3,3,3-trifluoropropyl)sulfonyl)azetidin-3-yl)acetonitrile]
- IC50 [5]: > 30000 nM

- IC50 [1]: > 10 µM
- IC50 [2]: 27 nM
- AUC(0-t) [9]: 834 ng·h/mL
- half-life [9]: 0.997 h
- IC50 ([3]; human): > 10 µM
- IC50 [4]: 33.8 nM
- AUC(0-t) [10]: 3150 ng·h/mL
- IC50 [7]: 1.49 nM
- IC50 [8]: > 10 µM
Structure (SMILES): CCS(=O)(=O)N1CC(CC#N)(n2cc(-c3c(C#N)cnc4[nH]ccc34)cn2)C1 [Compound 5, 4-(1-(3-(cyanomethyl)-1-(ethylsulfonyl)azetidin-3-yl)-1H-pyrazol-4-yl)-1H-pyrrolo[2,3-b]pyridine-5-carbonitrile]
- IC50 [5]: > 30000 nM

- IC50 [1]: > 10 µM
- half-life [9]: 1.67 h
- IC50 ([3]; human): > 10 µM
- IC50 [4]: 10 to 30 nM
- IC50 [7]: 0.69 nM
- IC50 [8]: > 10 µM
Structure (SMILES): CCS(=O)(=O)N1CC(CC#N)(n2cc(-c3ncnc4[nH]ccc34)cc2C#N)C1 [Compound 39, 1-(3-(cyanomethyl)-1-(ethylsulfonyl)azetidin-3-yl)-4-(7H-pyrrolo[2,3-d]pyrimidin-4-yl)-1H-pyrrole-2-carbonitrile]
- IC50 [5]: > 30000 nM

- IC50 [1]: > 10 µM
- IC50 [2]: > 30 nM
- IC50 ([3]; read-out: IC50 (μM) CYP1A2): > 10 µM
- IC50 [4]: > 30 nM
- IC50 [6]: 2.29 nM
- IC50 [7]: 0.83 nM
- IC50 [8]: > 10 µM
Structure (SMILES): CC(C)CS(=O)(=O)N1CC(CC#N)(n2cc(-c3ccnc4[nH]ccc34)cn2)C1 [Compound 25, 2-(3-(4-(1H-pyrrolo[2,3-b]pyridin-4-yl)-1H-pyrazol-1-yl)-1-(isobutylsulfonyl)azetidin-3-yl)acetonitrile]
- IC50 [5]: > 30000 nM

- bioavailability [12]: 26.3%
- AUC(0-t) [12]: 994 ng·h/mL
- half-life [12]: 1.96 h
- half-life [13]: 1.38 h
- AUC(0-t) [9]: 505 ng·h/mL
- half-life [9]: 0.946 h
- bioavailability ([10]; PO administration at 0.5-5 mg/kg, read-out: bioavailability (F %)): 55%
- half-life ([10]; PO administration at 0.5-5 mg/kg, read-out: half-life (T1/2) (converted)): 1.58 h
- AUC(0-t) [10]: 3050 ng·h/mL
Structure (SMILES): CCS(=O)(=O)N1CC(CC#N)(n2cc(-c3ncnc4[nH]ccc34)cn2)C1 [Baricitinib, reference compound]
- Mean arthritis score [11, 14]: 3.00
- Mean paw thickness (mm) [11, 14]: 7.17 mm
- Mean paw volume [11, 14]: 1.71 mL
- Mean arthritis score ([11]; D4, 10 mg/kg gavage once a day): 2.25
- Mean paw thickness (mm) ([11]; D4, 10 mg/kg gavage once a day): 6.67 mm
- Mean paw volume ([11]; D4, 10 mg/kg gavage once a day): 1.55 mL
- Mean arthritis score ([11]; D7, 10 mg/kg gavage once a day): 1.38
- Mean paw thickness (mm) ([11]; D7, 10 mg/kg gavage once a day): 6.47 mm
- Mean paw volume ([11]; D7, 10 mg/kg gavage once a day): 1.47 mL
- Mean arthritis score [11, 15]: 1.75
- Mean paw thickness (mm) [11, 15]: 6.36 mm
- Mean paw volume [11, 15]: 1.48 mL
- Mean arthritis score [11, 16]: 1.88
- Mean paw thickness (mm) [11, 16]: 6.21 mm
- Mean paw volume [11, 16]: 1.59 mL

- IC50 [2]: 27.3 nM
- bioavailability [12]: 78.6%
- AUC(0-t) [12]: 2600 ng·h/mL
- half-life [12]: 2.68 h
- half-life [13]: 5.29 h
- AUC(0-t) [9]: 2650 ng·h/mL
- half-life [9]: 3.93 h
- IC50 [4]: 47.9 nM
- AUC(0-t) [10]: 14100 ng·h/mL
Structure (SMILES): CCS(=O)(=O)N1CC(CC#N)(n2cc(-c3ccnc4[nH]ccc34)cn2)C1 [Compound 8, 2-(3-(4-(1H-pyrrolo[2,3-b]pyridin-4-yl)-1H-pyrazol-1-yl)-1-(ethylsulfonyl)azetidin-3-yl)acetonitrile]
- Mean arthritis score [11, 14]: 2.63
- Mean paw thickness (mm) [11, 14]: 7.18 mm
- Mean paw volume [11, 14]: 1.71 mL
- Mean arthritis score ([11]; D4, 10 mg/kg gavage once a day): 1.38
- Mean paw thickness (mm) ([11]; D4, 10 mg/kg gavage once a day): 6.04 mm
- Mean paw volume ([11]; D4, 10 mg/kg gavage once a day): 1.47 mL
- Mean arthritis score ([11]; D7, 10 mg/kg gavage once a day): 1.00
- Mean paw thickness (mm) ([11]; D7, 10 mg/kg gavage once a day): 5.67 mm
- Mean paw volume ([11]; D7, 10 mg/kg gavage once a day): 1.41 mL
- Mean arthritis score [11, 15]: 1.00
- Mean paw thickness (mm) [11, 15]: 5.56 mm
- Mean paw volume [11, 15]: 1.42 mL
- Mean arthritis score [11, 16]: 1.13
- Mean paw thickness (mm) [11, 16]: 5.52 mm
- Mean paw volume [11, 16]: 1.48 mL
- IC50 [5]: > 30000 nM

- IC50 [1]: > 10 µM
- AUC(0-t) [9]: 1390 ng·h/mL
- half-life [9]: 7.1 h
- IC50 ([3]; human): > 10 µM
- IC50 [4]: 10.3 nM
- AUC(0-t) [10]: 5030 ng·h/mL
- IC50 [6]: 0.69 nM
- IC50 [8]: > 10 µM
Structure (SMILES): CS(=O)(=O)N1CC(CC#N)(n2cc(-c3ccnc4[nH]ccc34)cn2)C1 [Compound 19, 2-(3-(4-(1H-pyrrolo[2,3-b]pyridin-4-yl)-1H-pyrazol-1-yl)-1-(methylsulfonyl)azetidin-3-yl)acetonitrile]
- IC50 [5]: > 30000 nM
